What was measured:
α1d (rat) adrenoreceptor = target: T1, α1d (rat) adrenoreceptor (Rattus norvegicus, UniProt P23944); test: [3H]-prazosin radioligand binding, cloned α1d (rat) adrenoreceptor in LTK cells; details: cloned receptor in LTK cell membranes, [3H]prazosin 0.2 nM
T1 sequence (P23944 1-561): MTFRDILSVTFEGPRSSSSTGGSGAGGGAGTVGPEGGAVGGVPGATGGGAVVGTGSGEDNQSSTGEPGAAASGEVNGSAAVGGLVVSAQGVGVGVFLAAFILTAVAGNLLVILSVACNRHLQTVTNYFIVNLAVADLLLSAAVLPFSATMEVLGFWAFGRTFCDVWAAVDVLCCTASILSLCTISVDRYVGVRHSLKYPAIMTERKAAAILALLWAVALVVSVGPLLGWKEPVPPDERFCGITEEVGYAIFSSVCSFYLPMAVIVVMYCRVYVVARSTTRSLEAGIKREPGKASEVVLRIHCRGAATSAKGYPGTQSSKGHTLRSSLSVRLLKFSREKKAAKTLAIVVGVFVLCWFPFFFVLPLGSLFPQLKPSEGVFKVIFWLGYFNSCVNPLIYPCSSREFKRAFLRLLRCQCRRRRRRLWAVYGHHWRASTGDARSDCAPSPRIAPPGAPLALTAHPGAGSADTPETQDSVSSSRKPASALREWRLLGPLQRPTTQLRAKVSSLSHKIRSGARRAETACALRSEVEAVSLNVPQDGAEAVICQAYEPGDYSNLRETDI
Protocol: Representative compounds of the invention were evaluated for α adrenoreceptor binding affinity in vitro using [^3H]-prazosin as the radioligand and following four cloned α1, adrenoreceptors expressed in LTK cells: α1a (rat), α1a (bovine), α1b : (hampster), and α1d (rat).
The cDNA clones encoding the α1, adrenoreceptors were obtained from TULCO (Triangle Universities Licensing Consortium, Research Triangle Park, N.C.) and inserted into the eukaryotic expression vector SnaB30. In this vector, expression of the adrenoreceptor gene is under the transcriptional control of an SV40 early promoter. Positive drug selection is provided by a neomycin-resistance gene. Mouse fibroblast cells (LTK) were transfected with the α1 expression plasmids and grown in Dulbecco's modified Eagle's medium (DMEM) containing 10% fetal calf serum and 30 μM G418. Stable G418-resistant parental lines were generated with successful expression of adrenoreceptor protein monitored using radioligand binding techniques. Stable single cell clones derived from the parental lines were screened in adrenoreceptor binding assays to identify clones having high adrenoreceptor density. Roller bottle cultures of the cloned lines were used to provide cell membranes for subsequent adrenoreceptor binding characterization studies. A cell line containing the SnaB30 vector expressing the human erythropoietin gene served as a negative control.
For adrenoreceptor binding assays, large scale membrane preparations were utilized in which 6 million cells were seeded into small (450 cm^2) Coming tissue culture roller bottles. DMEM (200 mL) containing 10% fetal calf serum and 300 μM G418 were added to each roller bottle. A 95% air/5% CO2 gas mixture (sterile) was injected into each roller bottle prior to sealing, and the bottles were then incubated at 37° C. on a roller rack for 5 days. Cells were refed with fresh medium after 3 days in culture.
On the fifth day of culture, growth medium was removed from cells grown in roller bottles, and the cells were washed twice with PBS (Sigma, 120 mM NaCl, 2.7 mM KCl, 10 mM Na2HPO4-NaH2PO4, pH=7.4). Cells were detached from the roller bottles by incubating for 15 minutes at 37° C. in a Tris-EDTA solution (10 mM Tris, 100 mM NaCl, 1 mM EDTA, pH=7.4). The cell suspension from each roller bottle was decanted into tared centrifuge tubes and kept on ice. An aliquot of each cell suspension was generally taken for cell counting. Cells were centrifuged at 3000×G for 5 minutes at 2-4° C., washed with PBS and recentrifuged. The supernatant was decanted, and the pellet was weighed to determine the wet weight of cells. Cells were washed a final time in 40 vol 5 mM Tris-HCl, 5 mM EDTA, pH=7.7 and centrifuged at 40,000×G for 10 minutes (“vol” indicates volume/weight, e.g., a “vol” of 40 would indicate that the one gram of cells were washed with 40 mls of buffer). Cells were homogenized in of 50 mM Tris-HCl, 5 mM EDTA (pH=7.4) (10 mL) and diluted to 40 mL/tube. Homogenates were centrifuged at 40,000×G for 10 minutes. The supernatant was decanted and the pellets rehomogenized in 50 mM Tris-HCl (pH=7.4) and centrifuged as before. The supernatant was decanted and the homogenate was resuspended in 6.25 volumes (per gram wet weight) of 50 mM Tris-HCl and aliquots of the pooled homogenates frozen in liquid N2 and,stored at −70° C. until the time of assay.
Receptor binding assays for α1 adrenoreceptors were performed essentially as described by Greengrass and Bremner (Eur. J. Pharmacol. 55: 323-326 (1979)). […] Following equilibration, bound radioligand was separated from free on GF/B filters (presoaked in 0.5% polyethyleneimine) using ither a Brandel or Packard cell harvester. Radioactivity was determined by standard liquid scintillation techniques. Data were analyzed as previously described (Hancock, A. A., Kyncl, J. J., Martin, Y. C. and DeBemardis, J. F., J. Receptor Res. 8: 23-46 (1988)). The in Table 1.

| Structure (SMILES) | Ki (α1d (rat) adrenoreceptor) [nM] | melting point [°C] |
| --- | --- | --- |
| Cl.Cl.O=c1[nH]c2c(sc3cccnc32)c(=O)n1CCCN1CCN2c3ccccc3OCC2C1 (single isomer, unassigned; (+)) [Example 1, (+) 3-[3-(1,2,4a,5-tetrahydropyrazino[2,1-c][1,4]benzoxazin-3(4H)-yl)propyl]pyrido[2′,3′:4,5]thieno[3,2-d]pyrimidine-2,4(1H,3H)-dione dihydrochloride] | 5.89 | 278 to 282 |
| COc1cccc2c1N1CCN(CCCn3c(=O)[nH]c4c(sc5cccnc54)c3=O)CC1CO2.Cl.Cl.Cl (single isomer, unassigned; (+)) [Example 17, (+) 3-[3-(10-methoxy-1,2,4a,5-tetrahydropyrazino[2,1-c][1,4]benzoxazin-3(4H)-yl)propyl]pyrido[2′,3′:4,5]thieno[3,2-d]pyrimidine-2,4(1H,3H)-dione trihydrochloride] | 20.5 | 219 to 224 |

— US6376488B1, “Benzoxazine α-1 adrenergic compounds” (Abbott Laboratories, priority 2000, dated 2002)
